This is an account of results in patent US9958451B2, “Near-infrared fluorescent dyes with large stokes shifts” (Portland State University, priority 2011, dated 2018).

Where “and” joins values, the source holds several entries; their conditions need not be identical. Equal values may be shown once. Marks after values point to notes of the source that are not given here.

Data set [1] can be described thus: Spectral properties of rhodamine bis-boronic acids and precursors in DMSO:buffer. The class given is physicochemical. Details: Brightness: scale not given here. As to the method: Characterization: The spectral properties of compounds 50-53 were determined. Absorption and fluorescence spectra of solutions of the rhodamine bis-boronic acids 51 and 53, and their respective precursors 50 and 52, are shown in FIGS. 27A-C (in DMSO:buffer 1:9) and 27D-F (DMSO:buffer 1:1). […] Excitation and emission spectra were normalized to their absorbance at the excitation wavelength, and are proportional to quantum yield.

Data set [2] is described as follows: UV-visible absorbance spectroscopy, 15 μM in 90% aqueous, 10% DMSO. Conditions: for Red shift of absorption spectra from 3-1 transposition versus known regiochemistry: depending on the ionization state. Format: physicochemical. How it is done: Compounds 21 and 7 were characterized by UV-visible spectroscopy (FIG. 15). Absorbance was measured using 15 μM solutions of each compound in a solution that was 90% aqueous, 10% DMSO. The peaks at 600 nm (light dashed line) and 675 nm (light solid line) represent the dianions of compounds 21 and 7, respectively, in NaOH (pH 12). The peaks at 590 nm (heavy dashed line) and 650 nm (heavy solid line) represent a mix of mono- and dianions of compound 21 at pH 7.4 and predominantly monoanions of compound 7 at pH 9, respectively.
Compounds 22 and 8 were characterized by UV-visible spectroscopy (FIG. 16). Absorbance was measured using 15 μM solutions of each compound in a solution that was 90% aqueous, 10% DMSO. The peaks at 610 nm (light dashed line) and 685 nm (light solid line) represent the anions of compounds 22 and 8, respectively, in NaOH (pH 12). The peaks at 605 nm (heavy dashed line) and 805 nm (heavy solid line) represent the neutral forms of compounds 22 and 8 at pH 7.4, respectively.
Compounds 20a and 15a were characterized by UV-visible spectroscopy (FIG. 17). Absorbance was measured using 15 μM solutions of each compound in a solution that was 90% aqueous, 10% DMSO. The peaks at 545 nm (light dashed line) and 595 nm (light solid line) represent the respective anions, compounds 20c and 15h, in NaOH (pH 12).
Compound 15b (free amino) was characterized by UV-visible spectroscopy (FIG. 18), and compared to C.SNARF-5 (literature, SNARF=seminaphthorhodafluor). Absorbance was measured using a 15 μM solution of compound 15b in a solution that was 90% aqueous, 10% DMSO. The peak at 535 nm (heavy line) represents the predominantly phenolic form of 15b at pH 6. The peak at 615 nm (light line) represents the phenoxide of compound 15b at in NaOH (pH12). In comparison, C.SNARF-5 produces a peak at 550 nm (anionic form) and a peak at 485 nm (neutral form) (Whitaker et al., Anal. Biochem. 1991, 194, 330-344).
Absorbance was measured using 15 μM solutions of compound 15d in a solution that was 90% aqueous, 10% DMSO. The peak at 570 nm (heavy line) represents the predominantly neutral form of 15d at pH 6. The peak at 630 nm (light line) represents the phenoxide of compound 15d in NaOH (pH 12).
Compounds 20b and 15g were characterized by UV-visible spectroscopy (FIG. 20). Absorbance was measured using 15 μM solutions of each compound in a solution that was 90% aqueous, 10% DMSO. The peaks at 540 nm (dashed line) and 570 nm (solid line) represent the cations of compounds 20b and 15g, respectively, at pH 7.4.

Data set [3] in a line: Absorbance and fluorescence in methanol. The class given is physicochemical. How it is done:
Absorbance and fluorescence of compounds 22 and 8 also were measured in methanol. […] Thus, placement of the hydroxyl group proximal to the xanthene internal oxygen in compound 8 produced a bathochromic shift of 103 nm in the absorption spectrum. The transposition also imparted a corresponding shift in the excitation spectrum, and a large bathochromic shift of 128 nm in the fluorescence emission. Importantly, compound 8 absorbs and emits in the near-infrared with absorption and emission maxima of 701 nm and 816 nm, respectively.
Absorbance and fluorescence of compounds 20a and 15a also were measured in methanol. […] Thus, placement of the hydroxyl group proximal to the xanthene internal oxygen in compound 15a produced a bathochromic shift of 15 nm in the absorbance spectrum. The transposition also imparted a corresponding shift in the excitation spectrum, and a large bathochromic shift of 32 nm in the fluorescence emission.

Data set [4] is described as follows: Fluorescence emission spectra, 15 μM in 90% aqueous, 10% DMSO. Format: physicochemical. As to the method:
Compounds 21 and 7 also were characterized by their fluorescence emission spectra. Fluorescence was measured using 15 μM solutions of each compound in a solution that was 90% aqueous, 10% DMSO. For compound 21, the longest wavelength emission observed from the dianions occurred near 680 nm at pH 9. For compound 7 (transposed), the longest wavelength emission observed from the monoanion occurred near 800 nm at pH 9.
Compounds 22 and 8 also were characterized by their fluorescence emission spectra. Fluorescence was measured using 15 μM solutions of each compound in a solution that was 90% aqueous, 10% DMSO For compound 22, the longest wavelength emission observed from the anion occurred near 690 nm at pH 9. […] Given the greater than 800 nm absorbance peak and the typically large Stokes shifts observed in this class of compounds, it is likely that the emission was beyond the working range of the instrument (>850 nm).
Compounds 20 and 15a also were characterized by their fluorescence emission spectra. Fluorescence was measured using 15 μM solutions of each compound in a solution that was 90% aqueous, 10% DMSO. For compound 20a, the longest wavelength emission observed from its corresponding anion, compound 20c, occurred near 640 nm in NaOH (pH 12). For compound 15a (transposed), the longest wavelength emission observed from the corresponding anion, compound 15h, occurred near 760 nm in NaOH.
Compound 15b also was characterized by its fluorescence emission spectrum and compared to C.SNARF-5. Fluorescence was measured using a 15 μM solution of compound 15b in a solution that was 90% aqueous, 10% DMSO. For C.SNARF-5, the longest wavelength emission observed from the anion occurred near 632 nm (Whitaker et al., Anal. Biochem. 1991, 194, 330-344). For compound 15b (transposed), the longest wavelength emission observed from the phenoxide occurred near 770 nm.
Fluorescence was measured using a 15 μM solution of compound 15d in a solution that was 90% aqueous, 10% DMSO. […] For compound 15d (transposed), the longest wavelength emission observed from the phenoxide occurred near 780 nm (NaOH, pH 12).
Compounds 20b and 15g also were characterized by their fluorescence emission spectra. Fluorescence was measured using 15 μM solutions of each compound in a solution that was 90% aqueous, 10% DMSO. For compound 20b, the longest wavelength emission observed from the cation occurred near 640 nm at pH 7.4. For compound 15g (transposed), the longest wavelength emission observed from the cation occurred near 770 nm at pH 7.4.

Data set [5] is described as follows: Emission in blood (whole porcine blood in buffer). The note with it: blood solution. As to the method: Compound 15d (Table 1) was diluted to 40 μM in 50% DMSO:50% 25 mM pH 9 phosphate buffer. […] Emission remained stable for at least 1 hr. The absorption profile matches the output of a laser pointer (635-670 nm; max output <5 mW).
Its absorbance and fluorescence spectra faded over time, but remained visible after about an hour (although with only 10-20% of its original emission intensity). Molecular modeling has shown favorable structural interactions of compounds 5f and 24 with glutathione (FIG. 12—compound 24).
Spectral behavior of compound 15g (type [c] annulated seminaphtho-rhodamine methyl ester (free amine) with the 3-1 transposition) was investigated to determine its potential for sensing use in whole blood. Solutions of compound 15g in 10% or 90% by volume whole blood (porcine blood in Na-EDTA, Lampire Biological Laboratories) were investigated in a 3×3 mm cell. The fluorophore was first dissolved in 50 mM, pH 7.4 phosphate buffer to ensure complete dissolution, and in the case of 90% whole blood, this stock solution was mixed with whole blood in a 1:9 ratio. In the case of 10% whole blood, 1 part whole blood was added to 9 parts of an appropriately diluted (with deionized water) solution of compound 15g stock. In both cases, the final concentration of compound 15g was 150 μM with a final phosphate buffer concentration of 5 mM. […] Throughout much of the spectrum, the dye produces a greater absorbance than the blood alone. The change in absorbance between the two spectra provides the effective absorbance of the dye. […] The broad absorption and large Stokes shift of this dye allows significant excitation with greater than 50% efficiency at wavelengths beyond that of the major hemoglobin peaks in blood.

[6] abbreviates: DMSO:buffer 1:1, pH 7.4 phosphate buffer 12.5 mM.
Where [7] appears, read: DMSO:buffer 1:9, pH 7.4 phosphate buffer 12.5 mM.
The mark [8] stands for this setting: pH 6, predominantly neutral/phenolic form.
Setting [9] is: NaOH (pH 12), anionic/phenoxide form, 90% aqueous 10% DMSO.

Turning to `N=c1ccc2c(-c3ccccc3C(=O)O)c3ccc4cc(N)ccc4c3oc-2c1` [Compound 50, seminaphthorhodamine], in data set [1] (DMSO buffer 1:9), the Quantum yield is 19%, the “Red shift of maximum absorption compared to rhodamine 110” value came out at 40 nm and the “Red shift of maximum emission compared to rhodamine 110” value is approximately 100 nm. In data set [1] (DMSO:buffer 1:1), the Brightness was found to be 6298, the Em was determined as 630 nm, the Ex came to 542 nm and the Q.Y. is recorded as 0.30. The ε in data set [1] (DMSO:buffer 1:1) was 21064 M⁻¹ cm⁻¹. The compound also displayed an Abs in data set [1] (setting [6]) of 542 nm. In data set [1] (DMSO:buffer 1:9), the Brightness is on record as 8083, the Em is recorded as 628 nm, the Ex came to 534 nm and the Q.Y. is 0.19. The ε in data set [1] (DMSO:buffer 1:9) was found to be 42701 M⁻¹ cm⁻¹. The Abs in data set [1] (setting [7]) came out at 535 nm.
On to `COC(=O)c1ccccc1-c1c2ccc(=O)cc-2oc2c1ccc1cccc(O)c12` [Compound 15a], for which, in data set [2] (90% aqueous 10% DMSO), the “Red shift of absorption spectra from 3-1 transposition versus known regiochemistry” value is 10-55 nm. Also, in data set [2] (setting [8]), the Absorbance peak amounted to 525 nm. Besides, in data set [3], the Absorption maximum was 501 nm and 536 nm; the “Bathochromic shift in the absorption spectrum versus known regiochemistry” value turned out to be 15 nm; the “Bathochromic shift in the fluorescence emission versus known regiochemistry” value is given as 32 nm; the Emission maximum is given as 582 nm.
As to `COC(=O)c1ccccc1-c1c2ccc(=O)cc-2oc2c1ccc1cc(O)ccc12` [Compound 20c], in data set [4], the Stokes shift entry is on record as “about 95 nm”. For the same compound, in data set [4] (NaOH (pH 12), anion/phenoxide), the Longest wavelength emission was approximately 640 nm. For the same compound, in data set [2] (setting [9]), the Absorbance peak is recorded as 545 nm.
`N=c1ccc2c(ccc3c(-c4ccccc4C(=O)O)c4ccc5cc(N)ccc5c4oc32)c1` [Compound 52, naphthorhodamine]: the Quantum yield in data set [1] (DMSO buffer 1:9) was determined as 10%. For the same compound, in data set [1] (DMSO:buffer 1:1), the Brightness is listed as 121^g, the Em is 676 nm, the Ex is given as 596 nm and the Q.Y. is recorded as 0.11. In data set [1] (DMSO:buffer 1:1), this compound returned a ε of 1081 M⁻¹ cm⁻¹. The Abs in data set [1] (setting [6]) amounted to 602 nm. Moreover, in data set [1] (DMSO:buffer 1:9), the Brightness is on record as 1144^d, the Em stood at 668 nm, the Ex stood at 584 nm and the Q.Y. was found to be 0.10. Also, in data set [1] (DMSO:buffer 1:9), the ε came to 11994 M⁻¹ cm⁻¹. Besides, in data set [1] (setting [7]), the Abs is 578 nm.
Take `Cc1ccc(C)c(-c2c3ccc4cccc(O)c4c3oc3c2ccc2cccc(=O)c23)c1` [Compound 4a]: the “Stability of absorption in the blood solution” value in data set [5] is on record as “remained stable over extended periods of time”.
`COC(=O)c1ccccc1-c1c2ccc(=O)cc-2oc2c1ccc1cc(O)ccc12` [Compound 20a] registered an Absorbance peak in data set [2] (setting [8]) of 515 nm. Besides, in data set [3], the Absorption maximum is 487 nm and 521 nm; the Emission maximum amounted to 550 nm.
Regarding `COC(=O)c1ccccc1-c1c2ccc(=N)cc-2oc2c1ccc1cc(N)ccc12` [Compound 20b], the Stokes shift entry in data set [4] is listed as “about 100 nm”. In data set [4] (pH 7.4, cation), the Longest wavelength emission is recorded as approximately 640 nm. In data set [2] (pH 7.4, 90% aqueous 10% DMSO), this compound came in with an Absorbance peak of 540 nm.
As for `COC(=O)c1ccccc1-c1c2ccc3cc(O)ccc3c2oc2c1ccc1cc(=O)ccc12` [Compound 22, naphthofluorescein methyl ester], the Stokes shift result in data set [4] is recorded as “about 80 nm”. The Longest wavelength emission in data set [4] (pH 9) is approximately 690 nm. The Absorbance peak in data set [2] (setting [9]) is 610 nm. The Absorbance peak in data set [2] (pH 7.4, 90% aqueous 10% DMSO) was 605 nm. In data set [3], the Absorption maximum was found to be 598 nm and the Emission maximum is 688 nm.
Consider `COC(=O)c1ccccc1-c1c2ccc(=N)cc-2oc2c1ccc1cccc(O)c12` [Compound 15b], for which the “Enhancement of the Stokes shift by 3-1 transposition” value in data set [4] is “about 73 nm”. For the same compound, in data set [4], the Stokes shift entry is “about 155 nm”. The “Red-shifted emission from 3-1 transposition versus known regiochemistry” value in data set [4] (longest wavelength-emitting species) is recorded as “about 138 nm”. Besides, the Longest wavelength emission in data set [4] (pH not stated) was approximately 770 nm. The “Red shift of absorption spectra from 3-1 transposition versus known regiochemistry” value in data set [2] (90% aqueous 10% DMSO) is listed as 50-65 nm. Further, the Absorbance peak in data set [2] (setting [9]) is reported as 615 nm; in data set [2] (setting [8]), 535 nm.
`O=C1OC2(c3ccccc31)c1ccc3cc(O)ccc3c1Oc1c2ccc2cc(O)ccc12` [Compound 21, Naphthofluorescein, reference compound]: the Stokes shift entry in data set [4] is “about 80 nm”. Further, the Longest wavelength emission in data set [4] (pH 9) was approximately 680 nm. The Absorbance peak in data set [2] (setting [9]) is on record as 600 nm; in data set [2] (pH 7.4, 90% aqueous 10% DMSO), 590 nm.
